“Also recorded” adds a separate entry of the source. Like-named read-outs stand apart in the source and are kept apart here.
Legend:
[1] = test system: post-lung transplant BOS; conditions: prophylactic, compared to placebo; cited from earlier work
[2] = test system: patients with post-lung transplant BOS; conditions: patients with an FEV1 response vs those without; cited from earlier work
[3] = test system: patients with lung cGVHD; conditions: response defined by an increase in FEV1 of ≥10%; cited from earlier work
[4] = test system: patients with aGVHD; conditions: human, in vivo, cited from earlier work
[5] = test system: patients with cGVHD; conditions: human, in vivo; cited from earlier work
[6] = test system: pediatric patients with lung cGVHD; conditions: cited from earlier work
[7] = target: human JAK2 (Homo sapiens (Human), UniProt O60674); experiment: In vitro JAK kinase assay (Example A), JAK2; assay type: biochemical; conditions: JAK2/JAK1 IC50 ratio, 1 mM ATP
human JAK2, sequence (O60674 828-1132): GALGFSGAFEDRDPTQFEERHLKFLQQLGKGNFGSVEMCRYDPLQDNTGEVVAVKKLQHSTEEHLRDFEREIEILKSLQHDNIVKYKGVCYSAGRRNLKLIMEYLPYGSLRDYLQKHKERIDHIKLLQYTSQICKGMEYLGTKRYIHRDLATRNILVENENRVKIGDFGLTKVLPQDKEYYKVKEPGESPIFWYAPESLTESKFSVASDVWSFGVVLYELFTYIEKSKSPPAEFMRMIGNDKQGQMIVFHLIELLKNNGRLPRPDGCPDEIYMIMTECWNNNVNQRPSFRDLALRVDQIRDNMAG
Method: The compounds in Table 2 were tested in this assay and shown to have the IC50 values in Table 2.

[8] = target: human JAK1 (Homo sapiens, UniProt P23458); experiment: In vitro JAK kinase assay (Example A), JAK1; assay type: biochemical; conditions: 1 mM ATP
Excerpt: In some embodiments, the JAK1 pathway inhibitor is a compound of Table 2, or a pharmaceutically acceptable salt thereof.

[9] = test system: alloreactive mouse model (GVHD); conditions: prophylactic and therapeutic dosing, 60 mg/kg per day or 120 mg/kg per day; cited from earlier work
[10] = test system: patients with post-lung transplant BOS; conditions: switching from cyclosporine to tacrolimus; cited from earlier work

## CC[C@H]1OC(=O)[C@H](C)[C@@H](O[C@H]2C[C@@](C)(OC)[C@@H](O)[C@H](C)O2)[C@H](C)[C@@H](O[C@@H]2O[C@H](C)C[C@H](N(C)C)[C@H]2O)[C@](C)(O)C[C@@H](C)CN(C)[C@H](C)[C@@H](O)[C@]1(C)O [Azithromycin]
[1]
  cases of BOS: fewer cases of BOS
  overall survival: overall survival was not affected
[2]
  overall survival: overall survival advantage

## N#CC[C@H](C1CCCC1)n1cc(-c2ncnc3[nH]ccc23)cn1 [ruxolitinib]
[3]
  patients with FEV1 responses: 4 out of 5
[4]
  clinical efficacy in acute GVHD: demonstrated clinical efficacy
[5]
  clinical efficacy in chronic GVHD: produced clinical efficacy
[6]; 1 patient
  increase in FEV1: 9%
[6]; 5 pediatric patients (4 evaluable)
  responses: 2
[6]; final patient
  decrease of the steroid requirement: > 50%
[6]; human, in vivo
  patients able to wean steroids completely: Four out of five

## N#CCC1(n2cc(-c3ncnc4[nH]ccc34)cn2)CN(C2CCN(C(=O)c3ccnc(C(F)(F)F)c3F)CC2)C1 [Compound 1, {1-{1-[3-Fluoro-2-(trifluoromethyl)isonicotinoyl]piperidin-4-yl}-3-[4-(7H-pyrrolo[2,3-d]pyrimidin-4-yl)-1H-pyrazol-1-yl]azetidin-3-yl}acetonitrile]
[7]
  JAK2/JAK1: >10
[4]; listed as itacitinib
  clinical efficacy in acute GVHD: demonstrated clinical efficacy; also recorded: significant clinical activity
[8]
  IC50: < 0.01 µM
[9]
  GVHD score: improvement in the GVHD score

## C=CC[C@@H]1/C=C(\C)C[C@H](C)C[C@H](OC)[C@H]2O[C@@](O)(C(=O)C(=O)N3CCCC[C@H]3C(=O)O[C@H](/C(C)=C/[C@@H]3CC[C@@H](O)[C@H](OC)C3)[C@H](C)[C@@H](O)CC1=O)[C@H](C)C[C@@H]2OC [tacrolimus]
[10]
  loss of predicted FEV1: decrease in the loss of predicted FEV1

— patent US11406640B2, “JAK1 pathway inhibitors for the treatment of chronic lung allograft dysfunction” (Incyte Corporation, priority 2019, dated 2022)
